The values below come from US8242118B2, “Arylsulfonamide derivatives for use as CCR3 antagonists in the treatment of inflammatory and immunological disorders” (Axikin Pharmaceuticals Inc., priority 2001, dated 2012).

The target of one data set is T1, Human CCR3 (Homo sapiens, UniProt P51677).
T1 construct: The cloned CCR3 cDNA was constructed with pcDNA3 vector and transfected into a IC562 cell line; expressed in transfected cells
T1 sequence (P51677 1-355): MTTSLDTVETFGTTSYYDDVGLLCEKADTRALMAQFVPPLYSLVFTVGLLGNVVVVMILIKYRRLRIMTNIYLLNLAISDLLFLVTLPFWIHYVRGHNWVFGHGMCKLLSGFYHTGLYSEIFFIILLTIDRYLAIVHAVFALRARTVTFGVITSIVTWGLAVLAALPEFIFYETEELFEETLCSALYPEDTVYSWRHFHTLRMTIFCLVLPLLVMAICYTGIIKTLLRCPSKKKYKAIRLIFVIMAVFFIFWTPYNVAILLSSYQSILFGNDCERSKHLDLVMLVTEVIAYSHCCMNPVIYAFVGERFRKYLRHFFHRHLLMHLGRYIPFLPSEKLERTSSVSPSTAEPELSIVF
The data set is described as follows: Calcium mobilization assay, eotaxin-stimulated. In kind it is cell-based. To be noted: human CCR3-transformed K562 cells, 10 nM eotaxin; compounds of about 40 to 90% purity; read-out: Activity grade Ca2+ (IC50 class). Put shortly: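 Eotaxin (10 nM final) triggered calcium flux, monitored 60 s with Fluo-3AM, in butyrate-pretreated (5 mM, 20–24 h) CCR3-transfected K562 cells. Compounds preincubated 10 min; percent inhibition per concentration yielded IC50.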
In general terms: Calcium assays in cells follow changes in intracellular calcium, usually with a dye or a luminescent sensor.

For orientation: melting point means the temperature of the solid-liquid transition. For orientation: IC50 means the concentration at which inhibition is half-maximal. `Cc1ccc(N2CCN(S(=O)(=O)c3cc([N+](=O)[O-])ccc3Oc3cc(C)cc(C)c3)CC2)cc1` [Example 4-8] yielded a melting point of 168 to 170 °C. The IC50 on Human CCR3 is over 10 µM.

In turn, `O=[N+]([O-])c1ccc(Oc2cc(Cl)cc(Cl)c2)c(S(=O)(=O)N2CCC[C@H]2CN2CCCC2)c1` [Example 4-22] gave a melting point of 200 to 202 °C. For the same molecule, the IC50 at Human CCR3 is under 1 µM.

On to `CN(C)CCN(C)S(=O)(=O)c1cc([N+](=O)[O-])ccc1Sc1cc(Cl)cc(Cl)c1` [Example 2-23], for which the melting point was found to be 102 °C. Besides, on Human CCR3, the IC50 was under 1 µM.

As to `O=[N+]([O-])c1ccc(Sc2cc(Cl)cc(Cl)c2)c(S(=O)(=O)N2CCC(N3CCCC3)CC2)c1` [Example 2-22], the melting point is 213 °C. The IC50 on Human CCR3 is under 1 µM.

Molecule `CCN1CCN(S(=O)(=O)c2cc([N+](=O)[O-])ccc2Oc2cc(C)cc(C)c2)CC1` [Example 4-5] came in with a melting point of 111 to 112 °C. The IC50 at Human CCR3 is under 1 µM.

The molecule `Cc1cc(C)cc(Oc2ccc([N+](=O)[O-])cc2S(=O)(=O)N2CCN(CC3CCCO3)CC2)c1` (centres unmarked) [Example 4-26] came in with a melting point of 178 to 179 °C. Further, the half-inhibitory concentration (IC50) on Human CCR3 is under 1 µM.

`Cc1cc(C)cc(Oc2ccc(F)cc2S(=O)(=O)N2CCNCC2)c1` [Example 6-3] returned a melting point of 116 to 118 °C. In addition, the IC50 on Human CCR3 was under 1 µM.
